Read-outs that look alike come from different tables or passages of the source.
Tests used:
[1] = system: Streptococcus salivarius; conditions: S salivarius, BHI
[2] = system: Actinomyces viscosus; conditions: A viscosus, BHI
[3] = system: Actinomyces naeslundii; conditions: A naeslundii, BHI
[4] = system: Prevotella intermedia; conditions: P intermedia, BHI
[5] = system: Porphyromonas gingivalis; conditions: P gingivalis, BHI
[6] = system: Prevotella intermedia; assay: Metabolic activity, Biolog phenotype microarray; type: cell-based; conditions: P intermedia
Procedure: (§1) The extent of metabolic activity of the tested bacteria in the presence of the above-mentioned acids after 24 hours and 48 hours was investigated through a high throughput phenotype microarray system (PM) for microbial cells (Biolog Inc.). Each PM can contain up to 95 different biochemical compounds (e.g. organic acids) that may act as substrates for bacteria as well as one negative control, not containing the substrates. Microarray plates were used in which the different wells of each plate were pre-loaded (by the manufacturer, Biolog Inc.) with different organic acids to be tested. Each bacterial species was tested using a separate microarray plate. Thus, a single bacterial species was tested with a variety of organic acids on each particular plate. The microarrays are based on redox technology, using cell respiration as a universal reporter. […] The observation of this color change indicates which of the substrates improve the metabolic activity and health of the cells.
(§2) Each bacterial species was collected from blood agar plates (incubated for 48 hours anaerobically at 37° C.) and transferred to an IF-0 Base inoculation fluid (Biolog Inc.), which is a nutritionally poor medium. […] A 1:5 dilution of this suspension was prepared by mixing 3 mL of the 42% transmittance cell suspension with 15 mL of an inoculation fluid (which inoculation fluid was formed by mixing 11.6 mL sterile water, 62.5 mL IF-0 base inoculation fluid and 0.9 mL of the tetrazolium dye “Biolog Redox Dye mix D”), resulting in a final cell density which was equal to 85% transmittance using a BioRad SmartSpec 3000 Photometer. For each of the acids tested, the microarray plate (obtained from the supplier (Biolog Inc.) with acid already present in the relevant wells in powder form) was directly inoculated with 100 μL/well of this 85% transmittance cell suspension.
(§3) All plates were incubated in an anaerobic atmosphere at 37° C. Color changes were measured spectrophotometrically at 492 nm (Thermo Scientific Multiskan Ascent) at 24 hrs and 48 hrs using the same plate at both time points.
(§4) The controls were also carried out three times, as above.

[7] = system: Veillonella parvula; assay: Metabolic activity, Biolog phenotype microarray; type: cell-based; conditions: V parvula
Procedure: as §1, §2, §3, §4

[8] = system: Porphyromonas gingivalis; assay: Metabolic activity, Biolog phenotype microarray; type: cell-based; conditions: P gingivalis
Procedure: as §1, §2, §3, §4

[9] = system: Actinomyces viscosus; assay: Metabolic activity, Biolog phenotype microarray; type: cell-based; conditions: A viscosus
Procedure: as §1, §2, §3, §4

[10] = system: Aggregatibacter actinomycetemcomitans; assay: Metabolic activity, Biolog phenotype microarray; type: cell-based; conditions: A actinomycetemcomitans
Procedure: as §1, §2, §3, §4

[11] = system: Capnocytophaga sputigena; assay: Metabolic activity, Biolog phenotype microarray; type: cell-based; conditions: C sputigena
Procedure: as §1, §2, §3, §4

[12] = system: Streptococcus mutans; assay: Metabolic activity, Biolog phenotype microarray; type: cell-based; conditions: S mutans
Procedure: as §1, §2, §3, §4

[13] = system: Actinomyces naeslundii; assay: Metabolic activity, Biolog phenotype microarray; type: cell-based; conditions: A naeslundii
Procedure: as §1, §2, §3, §4

[14] = system: Streptococcus sobrinus; assay: Metabolic activity, Biolog phenotype microarray; type: cell-based; conditions: S sobrinus
Procedure: as §1, §2, §3, §4

[15] = system: Tannerella forsythia; assay: Metabolic activity, Biolog phenotype microarray; type: cell-based; conditions: T forsythia
Procedure: as §1, §2, §3, §4

[16] = system: Streptococcus mitis; assay: Metabolic activity, Biolog phenotype microarray; type: cell-based; conditions: S mitis
Procedure: as §1, §2, §3, §4

[17] = system: Streptococcus sanguinis; assay: Metabolic activity, Biolog phenotype microarray; type: cell-based; conditions: S sanguinis
Procedure: as §1, §2, §3, §4

[18] = system: Streptococcus salivarius; assay: Metabolic activity, Biolog phenotype microarray; type: cell-based; conditions: S salivarius
Procedure: as §1, §2, §3, §4

[19] = system: Fusobacterium nucleatum; assay: Metabolic activity, Biolog phenotype microarray; type: cell-based; conditions: F nucleatum
Procedure: as §1, §2, §3, §4

[20] = system: Streptococcus gordonii; assay: Metabolic activity, Biolog phenotype microarray; type: cell-based; conditions: S gordonii
Procedure: as §1, §2, §3, §4

[21] = system: Streptococcus gordonii; conditions: S gordonii, BHI
[22] = system: Fusobacterium nucleatum; conditions: F nucleatum, BHI
[23] = system: beneficial oral bacteria and pathogenic oral bacteria; assay: Metabolic activity, prebiotic effect over the whole panel; type: cell-based; conditions: 48 hrs; threshold value of 2
Procedure: as §1, §2, §3, §4

[24] = system: Tannerella forsythia; conditions: T forsythia, BHI
[25] = system: Veillonella parvula; conditions: V parvula, BHI

In the case of `N[C@@H](CC(=O)O)C(=O)O` [L-aspartic acid], the “extent of growth, maximal OD630 over 48 hr divided by maximal OD of control (control = 1)” value ([1]; 5 μmol/ml) is reported as 0.9808, the “extent of growth, maximal OD630 over 48 hr divided by maximal OD of control (control = 1)” value ([1]; 10 μmol/ml) is reported as 0.9975 and the “extent of growth, maximal OD630 over 48 hr divided by maximal OD of control (control = 1)” value ([1]; 20 μmol/ml) is reported as 1.0719. For the same compound, the “extent of growth, maximal OD630 over 48 hr divided by maximal OD of control (control = 1)” value ([1]; 25 μmol/ml) was 0.9943, the “extent of growth, maximal OD630 over 48 hr divided by maximal OD of control (control = 1)” value ([2]; 5 μmol/ml) was 0.6862 and the “extent of growth, maximal OD630 over 48 hr divided by maximal OD of control (control = 1)” value ([2]; 10 μmol/ml) was 0.6163. For the same compound, the “extent of growth, maximal OD630 over 48 hr divided by maximal OD of control (control = 1)” value ([2]; 20 μmol/ml) was 0.5787, the “extent of growth, maximal OD630 over 48 hr divided by maximal OD of control (control = 1)” value ([2]; 25 μmol/ml) was 0.5023 and the “extent of growth, maximal OD630 over 48 hr divided by maximal OD of control (control = 1)” value ([3]; 5 μmol/ml) was 0.8893. For the same compound, the “extent of growth, maximal OD630 over 48 hr divided by maximal OD of control (control = 1)” value ([3]; 10 μmol/ml) was 0.8774, the “extent of growth, maximal OD630 over 48 hr divided by maximal OD of control (control = 1)” value ([3]; 20 μmol/ml) was 0.9021 and the “extent of growth, maximal OD630 over 48 hr divided by maximal OD of control (control = 1)” value ([3]; 25 μmol/ml) was 0.8435. For the same compound, the “extent of growth, maximal OD630 over 48 hr divided by maximal OD of control (control = 1)” value ([4]; 5 μmol/ml) was 1.0755, the “extent of growth, maximal OD630 over 48 hr divided by maximal OD of control (control = 1)” value ([4]; 10 μmol/ml) was 1.1717 and the “extent of growth, maximal OD630 over 48 hr divided by maximal OD of control (control = 1)” value ([4]; 20 μmol/ml) was 1.1438. For the same compound, the “extent of growth, maximal OD630 over 48 hr divided by maximal OD of control (control = 1)” value ([4]; 25 μmol/ml) was 1.1396, the “extent of growth, maximal OD630 over 48 hr divided by maximal OD of control (control = 1)” value ([5]; 5 μmol/ml) was 1.0608 and the “extent of growth, maximal OD630 over 48 hr divided by maximal OD of control (control = 1)” value ([5]; 10 μmol/ml) was 1.0376. For the same compound, the “extent of growth, maximal OD630 over 48 hr divided by maximal OD of control (control = 1)” value ([5]; 20 μmol/ml) was 1.0578, the “extent of growth, maximal OD630 over 48 hr divided by maximal OD of control (control = 1)” value ([5]; 25 μmol/ml) was 1.0084 and the “metabolic activity, OD at 492 nm divided by OD of control (control = 1)” value (“metabolic activity, OD at 492 nm divided” for short) ([6]; 24 hrs) was 0.9390. The “metabolic activity, OD at 492 nm divided” value ([6]; 48 hrs) was 0.9154, the “metabolic activity, OD at 492 nm divided” value ([7]; 24 hrs) was 1.8448 and the “metabolic activity, OD at 492 nm divided” value ([7]; 48 hrs) was 2.2760. For the same compound, the “metabolic activity, OD at 492 nm divided” value ([8]; 24 hrs) was 0.8910, the “metabolic activity, OD at 492 nm divided” value ([8]; 48 hrs) was 0.9017 and the “metabolic activity, OD at 492 nm divided” value ([9]; 24 hrs) was 0.9434. The “metabolic activity, OD at 492 nm divided” value ([9]; 48 hrs) was 0.9275, the “metabolic activity, OD at 492 nm divided” value ([10]; 24 hrs) was 1.4358 and the “metabolic activity, OD at 492 nm divided” value ([10]; 48 hrs) was 1.6253. The “metabolic activity, OD at 492 nm divided” value ([11]; 24 hrs) was 0.7060, the “metabolic activity, OD at 492 nm divided” value ([11]; 48 hrs) was 0.7655 and the “metabolic activity, OD at 492 nm divided” value ([12]; 24 hrs) was 0.9715. The “metabolic activity, OD at 492 nm divided” value ([12]; 48 hrs) was 0.8709, the “metabolic activity, OD at 492 nm divided” value ([13]; 24 hrs) was 0.8814 and the “metabolic activity, OD at 492 nm divided” value ([13]; 48 hrs) was 0.8283. The “metabolic activity, OD at 492 nm divided” value ([14]; 24 hrs) was 1.0053, the “metabolic activity, OD at 492 nm divided” value ([14]; 48 hrs) was 0.9338 and the “metabolic activity, OD at 492 nm divided” value ([15]; 24 hrs) was 0.9565. For the same compound, the “metabolic activity, OD at 492 nm divided” value ([15]; 48 hrs) was 0.9575, the “metabolic activity, OD at 492 nm divided” value ([16]; 24 hrs) was 1.0323 and the “metabolic activity, OD at 492 nm divided” value ([16]; 48 hrs) was 0.9065. For the same compound, the “metabolic activity, OD at 492 nm divided” value ([17]; 24 hrs) was 0.9451, the “metabolic activity, OD at 492 nm divided” value ([17]; 48 hrs) was 0.9195 and the “metabolic activity, OD at 492 nm divided” value ([18]; 24 hrs) was 0.9496. The “metabolic activity, OD at 492 nm divided” value ([18]; 48 hrs) was 0.8503, the “metabolic activity, OD at 492 nm divided” value ([19]; 24 hrs) was 0.9201 and the “metabolic activity, OD at 492 nm divided” value ([19]; 48 hrs) was 0.9448. The “metabolic activity, OD at 492 nm divided” value ([20]; 24 hrs) was 0.8729, the “metabolic activity, OD at 492 nm divided” value ([20]; 48 hrs) was 0.8488 and the “extent of growth, maximal OD630 over 48 hr divided by maximal OD of control (control = 1)” value ([21]; 5 μmol/ml) was 0.9448. The “extent of growth, maximal OD630 over 48 hr divided by maximal OD of control (control = 1)” value ([21]; 10 μmol/ml) was 0.9400, the “extent of growth, maximal OD630 over 48 hr divided by maximal OD of control (control = 1)” value ([21]; 20 μmol/ml) was 0.9583 and the “extent of growth, maximal OD630 over 48 hr divided by maximal OD of control (control = 1)” value ([21]; 25 μmol/ml) was 0.9466. For the same compound, the “extent of growth, maximal OD630 over 48 hr divided by maximal OD of control (control = 1)” value ([22]; 5 μmol/ml) was 0.7922, the “extent of growth, maximal OD630 over 48 hr divided by maximal OD of control (control = 1)” value ([22]; 10 μmol/ml) was 0.7973 and the “extent of growth, maximal OD630 over 48 hr divided by maximal OD of control (control = 1)” value ([22]; 20 μmol/ml) was 0.8395. For the same compound, the “extent of growth, maximal OD630 over 48 hr divided by maximal OD of control (control = 1)” value ([22]; 25 μmol/ml) was 0.8720, the “prebiotic effect (metabolic activity)” value [23] was “exhibited prebiotic effects” and the “extent of growth, maximal OD630 over 48 hr divided by maximal OD of control (control = 1)” value ([24]; 5 μmol/ml) was 0.9947. The “extent of growth, maximal OD630 over 48 hr divided by maximal OD of control (control = 1)” value ([24]; 10 μmol/ml) was 0.9717, the “extent of growth, maximal OD630 over 48 hr divided by maximal OD of control (control = 1)” value ([24]; 20 μmol/ml) was 1.0111 and the “extent of growth, maximal OD630 over 48 hr divided by maximal OD of control (control = 1)” value ([24]; 25 μmol/ml) was 0.9935. The “extent of growth, maximal OD630 over 48 hr divided by maximal OD of control (control = 1)” value ([25]; 5 μmol/ml) was 1.0851, the “extent of growth, maximal OD630 over 48 hr divided by maximal OD of control (control = 1)” value ([25]; 10 μmol/ml) was 1.1168 and the “extent of growth, maximal OD630 over 48 hr divided by maximal OD of control (control = 1)” value ([25]; 20 μmol/ml) was 1.1378. The “extent of growth, maximal OD630 over 48 hr divided by maximal OD of control (control = 1)” value ([25]; 25 μmol/ml) was 1.1498.

Reference: US10945932B2, “Prebiotic oral care compositions containing carboxylic acids” (COLGATE-PALMOLIVE COMPANY, priority 2013, dated 2021)
